In patent US20090203683A1, “BICYCLIC HETEROCYCLES, PHARMACEUTICAL COMPOSITIONS CONTAINING THEM, THEIR USE, AND PROCESSES FOR PREPARING THEM” (BOEHRINGER INGELHEIM PHARMA GMBH & CO. KG, priority 2000, published 2009):

How the values were obtained:
human EGF-R = biological target: T1, human EGF-R (Homo sapiens, UniProt P00533); assay: Inhibition of EGF-dependent proliferation of F/L-HERc cells (Cell Titer 96 Aqueous Non-Radioactive Cell Proliferation Assay); format: cell-based; settings: F/L-HERc cells (murine IL-3-dependent line expressing human EGF-R), stimulated with EGF 20 ng/ml, 48 hours at 37° C., relative cell number as % of control
T1 construct: expressed in transfected cells; host or cells: F/L-HERc cells (murine IL-3-dependent FDC-P1 cells transduced with retroviral vector LXSN carrying human EGF-R cDNA; packaging line GP+E86)
Description: The biological properties of the new compounds were investigated as follows. […] A cell line of murine origin dependent on interleukin-3-(IL-3) which was genetically modified to express functional human EGF-R was used here. The proliferation of these cells known as F/L-HERc can therefore be stimulated either by murine IL-3 or by EGF (cf. T. von Rüden et al. in EMBO J. 7, 2749-2756 (1988) and J. H. Pierce et al. in Science 239, 628-631 (1988)). The starting material used for the F/L-HERc cells was the cell line FDC-P1, the production of which has been described by T. M. Dexter et al. in J. Exp. Med. 152, 1036-1047 (1980). Alternatively, however, other growth-factor-dependent cells may also be used (cf. for example, J. H. Pierce et al. in Science 239, 628-631 (1988); H. Shibuya et al. in Cell 70, 57-67 (1992) and W. S. Alexander in EMBO J. 10, 3683-3691 (1991)). For expressing the human EGF-R cDNA (cf. A. Ullrich et al. in Nature 309, 418-425 (1984)) recombinant retroviruses were used as described by T. von Rüden et al., EMBO J. 7, 2749-2756 (1988), except that the retroviral vector LXSN (cf. A. D. Miller et al. in BioTechniques 7, 980-990 (1989)) was used for the expression of the EGF-R cDNA and the line GP+E86 (cf. D. Markowitz et al. in J. Virol. 62, 1120-1124 (1988)) was used as the packaging cell.
The test was performed as follows. F/L-HERc cells were cultivated in RPMI/1640 medium (BioWhittaker), supplemented with 10% fetal calf serum (FCS, Boehringer Mannheim), 2 mM glutamine (BioWhittaker), standard antibiotics and 20 ng/ml of human EGF (Promega), at 37° C. and 5% CO2—In order to investigate the inhibitory activity of the compounds according to the invention, 1.5×10^4 cells per well were cultivated in triplicate in 96-well dishes in the above medium (200 μl), the cell proliferation being stimulated with either EGF (20 ng/ml) or murine IL-3. The IL-3 used was obtained from culture supernatants of the cell line X63/0 mL-3 (cf. H. Karasuyama et al. in Eur. J. Immunol. 18, 97-104 (1988)). The compounds according to the invention were dissolved in 100% dimethylsulfoxide (DMSO) and added to the cultures in various dilutions, the maximum DMSO concentration being 1%. The cultures were incubated for 48 hours at 37° C.
In order to determine the inhibitory activity of the compounds according to the invention the relative cell number was measured in O.D. units using the Cell Titer 96™ Aqueous Non-Radioactive Cell Proliferation Assay (Promega). The relative cell number was calculated as a percentage of the control (F/LHERc cells without inhibitor) and the concentration of active substance which inhibits the proliferation of the cells by 50% (IC50) was derived therefrom.

T1 sequence (P00533 25-1210): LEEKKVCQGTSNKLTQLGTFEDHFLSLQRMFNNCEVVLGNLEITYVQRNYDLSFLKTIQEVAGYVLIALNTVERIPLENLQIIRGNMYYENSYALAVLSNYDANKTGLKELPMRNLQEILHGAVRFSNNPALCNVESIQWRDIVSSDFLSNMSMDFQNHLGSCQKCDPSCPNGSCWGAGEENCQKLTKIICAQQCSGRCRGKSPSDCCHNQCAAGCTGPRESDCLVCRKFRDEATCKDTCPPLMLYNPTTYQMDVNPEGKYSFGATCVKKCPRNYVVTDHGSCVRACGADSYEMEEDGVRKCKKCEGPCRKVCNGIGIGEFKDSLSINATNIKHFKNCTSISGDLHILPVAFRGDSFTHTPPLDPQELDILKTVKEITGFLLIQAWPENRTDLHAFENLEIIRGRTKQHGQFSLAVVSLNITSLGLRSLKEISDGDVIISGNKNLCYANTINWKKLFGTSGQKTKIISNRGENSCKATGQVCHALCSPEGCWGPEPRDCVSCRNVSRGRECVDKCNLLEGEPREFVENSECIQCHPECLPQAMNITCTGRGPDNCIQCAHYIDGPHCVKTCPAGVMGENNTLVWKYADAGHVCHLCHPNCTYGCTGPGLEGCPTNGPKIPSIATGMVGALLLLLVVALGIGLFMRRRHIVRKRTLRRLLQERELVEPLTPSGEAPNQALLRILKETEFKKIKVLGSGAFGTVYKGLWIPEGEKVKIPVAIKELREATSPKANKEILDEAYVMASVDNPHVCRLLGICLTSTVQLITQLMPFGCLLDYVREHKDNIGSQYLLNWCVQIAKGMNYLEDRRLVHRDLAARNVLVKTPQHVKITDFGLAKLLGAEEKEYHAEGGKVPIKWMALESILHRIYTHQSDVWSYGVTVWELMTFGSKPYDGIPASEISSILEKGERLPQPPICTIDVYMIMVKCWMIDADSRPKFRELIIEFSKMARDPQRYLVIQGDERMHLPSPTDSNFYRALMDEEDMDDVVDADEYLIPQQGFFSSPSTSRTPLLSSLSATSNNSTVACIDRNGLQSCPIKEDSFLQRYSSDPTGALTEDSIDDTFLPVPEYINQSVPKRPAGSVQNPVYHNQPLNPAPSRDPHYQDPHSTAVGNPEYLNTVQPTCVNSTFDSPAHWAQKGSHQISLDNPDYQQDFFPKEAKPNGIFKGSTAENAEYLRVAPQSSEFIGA

Compound | IC50 (human EGF-R) | melting point
CCOC(=O)CN1CCC[C@H]1COc1cc2c(Nc3cccc(Br)c3)ncnc2cc1OC [1(2), (s)-4-[(3-bromophenyl)amino]-6-({1-[(ethoxycarbonyl)methyl]pyrrolidin-2-yl}methoxy)-7-methoxyquinazoline] | 20 nM | –
COC(=O)[C@@H]1CCCN1CCCOc1cc2c(Nc3cccc(Br)c3)ncnc2cc1OC [2(1), (s)-4-[(3-bromophenyl)amino]-6-[3-(2-methoxycarbonylpyrrolidin-1-yl)propyloxy]-7-methoxyquinazoline] | 39 nM | –
CCOC(=O)CN(CCOc1cc2c(Nc3cccc(Br)c3)ncnc2cc1OC)CC(=O)OCC [3(2), 4-[(3-bromophenyl)amino]-6-(2-{N,N-bis[(ethoxycarbonyl)methyl]amino}ethoxy)-7-methoxyquinazoline] | 70 nM | –
COC(=O)CC(CC(=O)OC)N1CCN(CCOc2cc3c(Nc4cccc(Br)c4)ncnc3cc2OC)CC1 [3(4), 4-[(3-bromophenyl)amino]-6-[2-(4-{1-[(methoxycarbonyl)methyl]-2-(methoxycarbonyl)ethyl}piperazin-1-yl)ethoxy]-7-methoxyquinazoline] | 77 nM | –
CCOC(=O)CN1CCN(CC(O)COc2cc3c(Nc4cccc(Br)c4)ncnc3cc2OC)CC1 (centres unmarked) [Example 4, 4-[(3-bromophenyl)amino]-6-(3-{4-[(ethoxycarbonyl)methyl]piperazin-1-yl}-2-hydroxypropyloxy)-7-methoxyquinazoline] | 33 nM | 118 to 122 °C
CCOC(=O)CN(C)CCOc1cc2c(Nc3cccc(Br)c3)ncnc2cc1OC [3(1), 4-[(3-bromophenyl)amino]-6-(2-{N-[(ethoxycarbonyl)methyl]-N-methylamino}ethoxy)-7-methoxyquinazoline] | 100 nM | –

More lines, now with the values ahead:

IC50 (human EGF-R) | melting point | Compound
45 nM | 155 °C | CCOC(=O)CN1CCN(CCOc2cc3c(Nc4cccc(Br)c4)ncnc3cc2OC)CC1 [Example 3, 4-[(3-bromophenyl)amino]-6-(2-{4-[(ethoxycarbonyl)methyl]piperazin-1-yl}ethoxy)-7-methoxyquinazoline]
46 nM | – | COC(=O)CN1CCN(CCCOc2cc3c(Nc4ccc(F)c(Cl)c4)ncnc3cc2OC)CC1 [Example 1, 4-(3-chloro-4-fluorophenylamino)-6-{3-[4-(methoxycarbonylmethyl)-1-piperazinyl]propyloxy}-7-methoxyquinazoline]
230 nM | – | CCOC(=O)CN(C)CCCOc1cc2c(Nc3ccc(F)c(Cl)c3)ncnc2cc1OC [Example 2, 4-(3-chloro-4-fluorophenylamino)-6-{3-[N-(ethoxycarbonylmethyl)-N-methylamino]propyloxy}-7-methoxyquinazoline]
